inhibition, IC50 and Activity data for three molecules are collected here from ChEMBL document CHEMBL5518173, “Discovery of a novel anti-osteoporotic agent from marine fungus-derived structurally diverse sirenins” (Eur J Med Chem, 2024).

The source made the active and inactive calls. The rule behind the calls is not given here.

In one series the test system is RAW264.7. In words: Inhibition of LPS-induced NF-kappaB activation in mouse RAW264.7 cells transfected with luciferase reporter gene at 20 uM pretreated with compounds for 30 mins followed by LPS stimulation for 8 hrs by luciferase reporter gene assay. The series is classed as cell-based. As to conditions: time 8.5 hrs. On the technique in general: Reporter assays use an easily measured gene product as a stand-in for the process of interest.

Series [1] in a line: Inhibition of LPS-induced NF-kappaB activation in mouse RAW264.7 cells transfected with luciferase reporter gene pretreated with compounds for 30 mins followed by LPS stimulation for 8 hrs by luciferase reporter gene assay. The series is classed as cell-based.
For series [2], the system named is BMMC. Briefly: Anti-osteoporosis activity in mouse BMMC cells assessed as inhibition of RANKL-induced osteoclast differentiation measured after 3 days in presence of MCSF by TRAP staining based assay. The series is classed as functional, cell-based. Conditions: dose 5-15 µM, time 3.0 day.
Series [3] has as its system BMMC. In words: Cytotoxicity against mouse BMMC cells at 5 to 15 uM measured after 72 hrs by MTT assay. The series is classed as toxicity, cell-based. As to conditions: dose 5-15 µM. Background: Tetrazolium assays rely on reduction of a dye to a coloured formazan, in cell work by metabolically active cells.
For series [4], the species on record is Danio rerio. In words: Anti osteoporosis activity in prednisone induced Tg (ola.sp7:nlsGFP) Zebrafish model assessed as mitigation of fluorescence area reduction in zebrafish branchiostegal rays at 2.5 to 5 uM by microscopy based analysis. The series is classed as functional, organism-based. Conditions: dose 2.5-5 µM.
For series [5], the species on record is Danio rerio. In words: Anti osteoporosis activity in prednisone induced Tg (ola.sp7:nlsGFP) Zebrafish model assessed as mitigation of fluorescence area reduction in zebrafish opercle at 2.5 to 5 uM by microscopy based analysis. The series is classed as functional, organism-based. As to conditions: dose 2.5-5 µM.
Series [6] is filed under the species Danio rerio. In words: Anti osteoporosis activity in prednisone induced Tg (ola.sp7:nlsGFP) Zebrafish model assessed as mitigation of fluorescence density reduction in zebrafish branchiostegal rays at 2.5 to 5 uM by microscopy based analysis. The series is classed as functional, organism-based. Conditions: dose 2.5-5 µM.
The species named for series [7] is Danio rerio. Briefly: Anti osteoporosis activity in prednisone induced Tg (ola.sp7:nlsGFP) Zebrafish model assessed as mitigation of fluorescence density reduction in zebrafish opercle at 2.5 to 5 uM by microscopy based analysis. The series is classed as functional, organism-based. Conditions: dose 2.5-5 µM.
The species named for series [8] is Danio rerio. In words: Anti osteoporosis activity in Tg (ola.sp7:nlsGFP) Zebrafish model assessed as reversal of prednisone induced alp gene inhibition 2.5 to 10 uM by real-time qPCR analysis. The series is classed as functional, organism-based. As to conditions: dose 2.5-10 µM. In general terms: In qPCR the cycle at which signal appears reflects the starting amount.

Series [9] is filed under the species Danio rerio. In words: Anti osteoporosis activity in Tg (ola.sp7:nlsGFP) Zebrafish model assessed as reversal of prednisone induced bmp4 gene inhibition 2.5 to 10 uM by real-time qPCR analysis. The series is classed as functional, organism-based. Conditions: dose 2.5-10 µM.
Series [10] is filed under the species Danio rerio. Briefly: Anti osteoporosis activity in Tg (ola.sp7:nlsGFP) Zebrafish model assessed as reversal of prednisone induced bmp2a gene inhibition 2.5 to 10 uM by real-time qPCR analysis. As to conditions: dose 2.5-10 µM. The series is classed as functional, organism-based.
For series [11], the species on record is Danio rerio. Briefly: Anti osteoporosis activity in prednisolone induced Tg (ola.sp7:nlsGFP) Zebrafish model assessed as upregulation of col1a2 mRNA expression at 5 uM by real-time qPCR analysis. The series is classed as functional, organism-based.
Series [12] is filed under the species Danio rerio. In words: Anti osteoporosis activity in prednisolone induced Tg (ola.sp7:nlsGFP) Zebrafish model assessed as upregulation of col4a6 mRNA expression at 5 uM by real-time qPCR analysis. The series is classed as functional, organism-based.
Series [13] is filed under the species Danio rerio. In words: Anti osteoporosis activity in prednisolone induced Tg (ola.sp7:nlsGFP) Zebrafish model assessed as upregulation of itbg5 mRNA expression at 5 uM by real-time qPCR analysis. The series is classed as functional, organism-based.
Series [14] is filed under the species Danio rerio. In words: Anti osteoporosis activity in prednisolone induced Tg (ola.sp7:nlsGFP) Zebrafish model assessed as upregulation of frem2b mRNA expression at 5 uM by real-time qPCR analysis. The series is classed as functional, organism-based.
For series [15], the species on record is Danio rerio. Briefly: Anti osteoporosis activity in prednisolone induced Tg (ola.sp7:nlsGFP) Zebrafish model assessed as upregulation of frem2a mRNA expression at 5 uM by real-time qPCR analysis. The series is classed as functional, organism-based.
For series [16], the species on record is Danio rerio. In words: Anti osteoporosis activity in prednisolone induced Tg (ola.sp7:nlsGFP) Zebrafish model assessed as upregulation of vdrb-mRNA expression at 5 uM by real-time qPCR analysis. The series is classed as functional, organism-based.
Another series relates to HEK293T. In words: Inhibition of cGAS/STING induced IFN-beta luciferase activation in HEK293T cells at 1 to 30 uM by Dual luciferase reporter assay. As to conditions: Homo sapiens, dose 1-30 µM. The series is classed as cell-based.
The target of series [17] is T1, Serine/threonine-protein kinase TBK1 (Homo sapiens) (UniProt Q9UHD2).
T1 sequence (whole entry): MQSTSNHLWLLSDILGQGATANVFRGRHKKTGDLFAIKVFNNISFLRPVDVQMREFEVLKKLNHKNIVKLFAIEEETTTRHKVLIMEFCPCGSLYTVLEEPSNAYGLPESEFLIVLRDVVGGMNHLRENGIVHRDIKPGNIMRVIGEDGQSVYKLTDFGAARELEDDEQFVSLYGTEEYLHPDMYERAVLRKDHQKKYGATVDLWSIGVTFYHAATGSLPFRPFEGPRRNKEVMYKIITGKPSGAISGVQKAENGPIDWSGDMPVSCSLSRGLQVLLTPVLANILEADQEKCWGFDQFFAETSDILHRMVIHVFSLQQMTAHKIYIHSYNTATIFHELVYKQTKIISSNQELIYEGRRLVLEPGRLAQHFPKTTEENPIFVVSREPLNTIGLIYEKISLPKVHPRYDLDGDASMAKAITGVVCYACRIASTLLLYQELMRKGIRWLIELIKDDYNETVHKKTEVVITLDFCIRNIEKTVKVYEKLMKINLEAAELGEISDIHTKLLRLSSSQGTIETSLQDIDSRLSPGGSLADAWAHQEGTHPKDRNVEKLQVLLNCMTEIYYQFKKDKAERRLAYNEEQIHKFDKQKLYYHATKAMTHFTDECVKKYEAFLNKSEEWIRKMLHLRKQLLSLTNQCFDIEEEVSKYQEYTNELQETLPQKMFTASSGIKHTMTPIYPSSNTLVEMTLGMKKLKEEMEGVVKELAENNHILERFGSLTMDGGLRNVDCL
In words: Inhibition of TBK1 induced IFN-beta luciferase activation in HEK293T cells at 1 to 30 uM by Dual luciferase reporter assay. The series is classed as cell-based. Conditions: dose 1-30 µM.

Series [18] concerns the target T2, Interferon regulatory factor 3 (Homo sapiens) (UniProt Q14653).
T2 sequence (whole entry): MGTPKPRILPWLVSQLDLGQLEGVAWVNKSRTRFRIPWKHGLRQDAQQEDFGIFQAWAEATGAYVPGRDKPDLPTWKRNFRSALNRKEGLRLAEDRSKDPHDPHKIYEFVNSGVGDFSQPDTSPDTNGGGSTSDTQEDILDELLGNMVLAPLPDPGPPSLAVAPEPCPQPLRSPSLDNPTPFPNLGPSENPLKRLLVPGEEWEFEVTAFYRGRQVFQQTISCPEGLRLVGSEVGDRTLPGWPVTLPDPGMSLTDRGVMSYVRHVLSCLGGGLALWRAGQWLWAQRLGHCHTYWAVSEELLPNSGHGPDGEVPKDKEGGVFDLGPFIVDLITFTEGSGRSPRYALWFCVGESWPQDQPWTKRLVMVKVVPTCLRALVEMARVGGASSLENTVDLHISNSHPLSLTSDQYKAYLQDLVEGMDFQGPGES
In words: Inhibition of IRF3 induced IFN-beta luciferase activation in HEK293T cells at 1 to 30 uM by Dual luciferase reporter assay. The series is classed as cell-based. As to conditions: dose 1-30 µM.

Series [19] has as its system BMDM. Briefly: Downregulation of IFN-beta mRNA expression in mouse BMDM cells by real-time PCR analysis. As to conditions: dose 1-30 µM. The series is classed as functional, cell-based.
Series [20] has as its system BMDM. Briefly: Downregulation of CXCL10 mRNA expression in mouse BMDM cells by real-time PCR analysis. The series is classed as functional, cell-based. Conditions: dose 1-30 µM.
The subject of series [21] is BMDM. Briefly: Downregulation of TNF-alpha mRNA expression in mouse BMDM cells by real-time PCR analysis. The series is classed as functional, cell-based. As to conditions: dose 1-30 µM.

Regarding `C[C@]1(C(=O)O)[C@@H]2C=C(C(=O)O)CC[C@@H]21`, in the series with RAW264.7, the inhibition result is “Active”.
Usually IC50 stands for the midpoint of a concentration-inhibition curve. For the molecule `COC(=O)CC[C@@]1(C)[C@@H]2C=C(C(=O)O)CC[C@@H]21`, the inhibition entry (in the series on RAW264.7; in the series with HEK293T; in series [17]; in series [18]) was “Active” each time. In series [1], the IC50 came to 14.5 µM. The Activity entry in the series on BMMC [2] was “Dose-Dependent Effect”; in the series with BMMC [3], “Non-Toxic”; with BMDM [19] it was “Dose-Dependent Effect”; with BMDM [20], “Dose-Dependent Effect”; in the series with BMDM [21] it was “Dose-Dependent Effect”. For the same molecule, the outcome in the series filed under Danio rerio [4], in the series filed under Danio rerio [5], in the series listed under Danio rerio [6], in the series listed under Danio rerio [7], in the series filed under Danio rerio [8] and in the series listed under Danio rerio [9] was Active. The result in the series listed under Danio rerio [10], in the series listed under Danio rerio [11], in the series filed under Danio rerio [12], in the series listed under Danio rerio [13], in the series filed under Danio rerio [14] and in the series listed under Danio rerio [15] was Active. Besides, the outcome in the series listed under Danio rerio [16] was Active.
For the molecule `CC(C)(O)C(=O)CC[C@@]1(C)[C@@H]2C=C(C(=O)O)CC[C@@H]21`, the inhibition result in the series on RAW264.7 was “Active”.
